In PubChem BioAssay (NCI):
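Five compound concentrations were applied to cells in 96-well plates for 48 hours; endpoints were derived by simple linear interpolation of the resulting dose-response curve. TGI denotes the concentration required for complete inhibition of growth.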

Experiments:
Experiment in all cases: NCI-60 cell line screen, 48 h
SR leukemia = system: SR leukemia
LOX IMVI melanoma = system: LOX IMVI melanoma
MCF7 breast = system: MCF7 breast
KM12 colon = system: KM12 colon
NCI-H23 lung = system: NCI-H23 lung
MDA-N = system: MDA-N
IGROV1 ovarian = system: IGROV1 ovarian
NCI/ADR-RES ovarian = system: NCI/ADR-RES ovarian
CAKI-1 renal = system: CAKI-1 renal
NCI-H522 lung = system: NCI-H522 lung
MDA-MB-435 = system: MDA-MB-435
COLO 205 colon = system: COLO 205 colon
NCI-H460 lung = system: NCI-H460 lung
DU-145 prostate = system: DU-145 prostate
M14 melanoma = system: M14 melanoma
SK-MEL-28 melanoma = system: SK-MEL-28 melanoma
SF-268 CNS = system: SF-268 CNS
RPMI-8226 leukemia = system: RPMI-8226 leukemia
RXF 393 renal = system: RXF 393 renal
NCI-H226 lung = system: NCI-H226 lung
HT29 colon = system: HT29 colon
UACC-62 melanoma = system: UACC-62 melanoma
SK-OV-3 ovarian = system: SK-OV-3 ovarian
SN12C renal = system: SN12C renal
HOP-62 NSCLC = system: HOP-62 NSCLC
SW-620 colon = system: SW-620 colon
OVCAR-4 ovarian = system: OVCAR-4 ovarian
SF-295 CNS = system: SF-295 CNS
HCT-116 colon = system: HCT-116 colon
EKVX NSCLC = system: EKVX NSCLC
OVCAR-5 ovarian = system: OVCAR-5 ovarian
UO-31 renal = system: UO-31 renal
HOP-92 NSCLC = system: HOP-92 NSCLC
T-47D breast = system: T-47D breast
UACC-257 melanoma = system: UACC-257 melanoma
786-0 renal = system: 786-0 renal
SNB-75 CNS = system: SNB-75 CNS
ACHN renal = system: ACHN renal
OVCAR-8 ovarian = system: OVCAR-8 ovarian
A498 renal = system: A498 renal
HS 578T breast = system: HS 578T breast
K-562 leukemia = system: K-562 leukemia
HL-60(TB) leukemia = system: HL-60(TB) leukemia
U251 CNS = system: U251 CNS
CCRF-CEM leukemia = system: CCRF-CEM leukemia
SNB-19 CNS = system: SNB-19 CNS
SF-539 CNS = system: SF-539 CNS
SK-MEL-2 melanoma = system: SK-MEL-2 melanoma
A549 NSCLC = system: A549 NSCLC
SK-MEL-5 melanoma = system: SK-MEL-5 melanoma
MOLT-4 leukemia = system: MOLT-4 leukemia
HCT-15 colon = system: HCT-15 colon
BT-549 breast = system: BT-549 breast
TK-10 renal = system: TK-10 renal
HCC-2998 colon = system: HCC-2998 colon
OVCAR-3 ovarian = system: OVCAR-3 ovarian
PC-3 prostate = system: PC-3 prostate
MDA-MB-231 breast = system: MDA-MB-231 breast
MALME-3M melanoma = system: MALME-3M melanoma
DMS 114 small cell lung = system: DMS 114 small cell lung
KM20L2 colon = system: KM20L2 colon
SNB-78 CNS = system: SNB-78 CNS
DLD-1 colon = system: DLD-1 colon
LXFL 529 NSCLC = system: LXFL 529 NSCLC

In the case of `CC(=O)O[C@H]1C(=O)[C@@]2(C)[C@H]([C@H](OC(=O)c3ccccc3)[C@]3(O)C[C@H](OC(=O)[C@H](O)[C@@H](NC(=O)c4ccccc4)c4ccccc4C)C(C)=C1C3(C)C)[C@]1(OC(C)=O)CO[C@@H]1C[C@@H]2O`, the TGI (SR leukemia) is reported as 4.06 µM, the TGI (LOX IMVI melanoma) is reported as over 25 µM and the TGI (MCF7 breast) is reported as over 16.1 µM. For the same compound, the TGI (KM12 colon) was 5.75 µM, the TGI (NCI-H23 lung) was over 11.6 µM and the TGI (MDA-N) was 0.392 µM. For the same compound, the TGI (IGROV1 ovarian) was over 25 µM, the TGI (NCI/ADR-RES ovarian) was over 25 µM and the TGI (CAKI-1 renal) was over 25 µM. It also gave a TGI (NCI-H522 lung) of 4.29 µM, a TGI (MDA-MB-435) of 0.289 µM and a TGI (COLO 205 colon) of 1.79 µM. It also gave a TGI (NCI-H460 lung) of over 11.3 µM, a TGI (DU-145 prostate) of over 20.6 µM and a TGI (M14 melanoma) of 3.02 µM. The TGI (SK-MEL-28 melanoma) was over 15.2 µM, the TGI (SF-268 CNS) was over 25 µM and the TGI (RPMI-8226 leukemia) was 1.03 µM. The TGI (RXF 393 renal) was 3.97 µM, the TGI (NCI-H226 lung) was over 25 µM and the TGI (HT29 colon) was 18.4 µM. It also gave a TGI (UACC-62 melanoma) of over 15.8 µM, a TGI (SK-OV-3 ovarian) of over 12.7 µM and a TGI (SN12C renal) of over 25 µM. For the same compound, the TGI (HOP-62 NSCLC) was over 25 µM, the TGI (SW-620 colon) was over 25 µM and the TGI (OVCAR-4 ovarian) was over 23.3 µM. The TGI (SF-295 CNS) was over 9.21 µM, the TGI (HCT-116 colon) was 9.15 µM and the TGI (EKVX NSCLC) was over 25 µM. It also gave a TGI (OVCAR-5 ovarian) of 4.74 µM, a TGI (UO-31 renal) of over 24.2 µM and a TGI (HOP-92 NSCLC) of 24.2 µM. The TGI (T-47D breast) was over 25 µM, the TGI (UACC-257 melanoma) was over 11.7 µM and the TGI (786-0 renal) was 12.8 µM. The TGI (SNB-75 CNS) was 10.1 µM, the TGI (ACHN renal) was over 25 µM and the TGI (OVCAR-8 ovarian) was 12.7 µM. It also gave a TGI (A498 renal) of 9.4 µM, a TGI (HS 578T breast) of 1.73 µM and a TGI (K-562 leukemia) of 5.08 µM. For the same compound, the TGI (HL-60(TB) leukemia) was 0.228 µM, the TGI (U251 CNS) was 6 µM and the TGI (CCRF-CEM leukemia) was 2.7 µM. The TGI (SNB-19 CNS) was over 25 µM, the TGI (SF-539 CNS) was 1.93 µM and the TGI (SK-MEL-2 melanoma) was 11.5 µM. The TGI (A549 NSCLC) was over 25 µM, the TGI (SK-MEL-5 melanoma) was 3.05 µM and the TGI (MOLT-4 leukemia) was 5.35 µM. It also gave a TGI (HCT-15 colon) of over 25 µM, a TGI (BT-549 breast) of over 11.8 µM and a TGI (TK-10 renal) of 18.9 µM. It also gave a TGI (HCC-2998 colon) of 7.11 µM, a TGI (OVCAR-3 ovarian) of 4.87 µM and a TGI (PC-3 prostate) of over 9.4 µM. For the same compound, the TGI (MDA-MB-231 breast) was over 16.1 µM and the TGI (MALME-3M melanoma) was over 24 µM.

Compound `c1ccc(C2(c3ccccc3)SSC3(S2)C2CC4CC(C2)CC3C4)cc1` (stereo not drawn) has a TGI (SR leukemia) of over 100 µM, a TGI (LOX IMVI melanoma) of over 100 µM and a TGI (KM12 colon) of over 100 µM. For the same compound, the TGI (NCI-H23 lung) was over 100 µM, the TGI (DMS 114 small cell lung) was over 100 µM and the TGI (IGROV1 ovarian) was over 100 µM. The TGI (CAKI-1 renal) was over 100 µM, the TGI (NCI-H460 lung) was over 100 µM and the TGI (M14 melanoma) was over 100 µM. For the same compound, the TGI (SK-MEL-28 melanoma) was over 100 µM, the TGI (SF-268 CNS) was over 100 µM and the TGI (RPMI-8226 leukemia) was over 100 µM. The TGI (RXF 393 renal) was over 100 µM, the TGI (KM20L2 colon) was over 100 µM and the TGI (HT29 colon) was over 100 µM. The TGI (UACC-62 melanoma) was over 100 µM, the TGI (SK-OV-3 ovarian) was over 100 µM and the TGI (SN12C renal) was over 100 µM. It also gave a TGI (SW-620 colon) of over 100 µM, a TGI (OVCAR-4 ovarian) of over 100 µM and a TGI (SNB-78 CNS) of over 100 µM. For the same compound, the TGI (SF-295 CNS) was over 100 µM, the TGI (HCT-116 colon) was over 100 µM and the TGI (EKVX NSCLC) was over 100 µM. It also gave a TGI (OVCAR-5 ovarian) of over 100 µM, a TGI (UO-31 renal) of over 100 µM and a TGI (HOP-92 NSCLC) of over 100 µM. For the same compound, the TGI (UACC-257 melanoma) was over 100 µM, the TGI (786-0 renal) was over 100 µM and the TGI (SNB-75 CNS) was over 100 µM. For the same compound, the TGI (ACHN renal) was over 100 µM, the TGI (OVCAR-8 ovarian) was over 100 µM and the TGI (A498 renal) was over 100 µM. The TGI (K-562 leukemia) was over 100 µM, the TGI (HL-60(TB) leukemia) was over 100 µM and the TGI (U251 CNS) was over 100 µM. For the same compound, the TGI (CCRF-CEM leukemia) was over 100 µM, the TGI (SNB-19 CNS) was over 100 µM and the TGI (SF-539 CNS) was over 100 µM. The TGI (DLD-1 colon) was over 100 µM, the TGI (SK-MEL-2 melanoma) was over 100 µM and the TGI (A549 NSCLC) was over 100 µM. The TGI (SK-MEL-5 melanoma) was over 100 µM, the TGI (MOLT-4 leukemia) was over 100 µM and the TGI (HCT-15 colon) was over 100 µM. For the same compound, the TGI (TK-10 renal) was over 100 µM, the TGI (LXFL 529 NSCLC) was over 100 µM and the TGI (HCC-2998 colon) was over 100 µM. For the same compound, the TGI (MALME-3M melanoma) was over 100 µM.
